Structures can show the parent of a compound that is named as a salt.
SMILES: Nc1cccc(-c2ccc(OCCO)c3c2CCCC3)n1 (as salt: hydrochloride) [Example 2, 6-[4-(2-Hydroxy-ethoxy)-5,6,7,8-tetrahydro-naphthalen-1-yl]-pyridin-2-ylamine]
- melting point: 170 to 172 °C

SMILES: CN(C)CCOCCOc1ccc(-c2cccc(N)n2)c2ccccc12 (as salt: hydrochloride) [Example 3, 6-[4-(2-(2-Dimethylaminoethoxy)-ethoxy)-naphthalen-1-yl]-pyridin-2-ylamine]
- melting point: 60 to 75 °C (dec.)
